The test concerns Aβ42 (human neuroglioma H4 cells expressing human wild type APP751). Nature of the test: In vitro cell screening assay with sandwich ELISA quantification of Aβ42 peptide. It is filed as cell-based. The note with it: H4 cells stably expressing human wild type APP751; Pro293 chemically defined medium; compounds 0.003-10 μM; incubated overnight (16-18 h); supernatant Aβ42 by sandwich ELISA; normalized to DMSO and DAPT; read-out: Aβ42 H4 Prot Fre IC50. The method, boiled down: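 H4 neuroglioma cells stably expressing human wild-type APP751 were treated in Pro293 medium with compounds (0.003-10 μM, 0.33% DMSO) for 16-18 h at 37° C. Secreted Aβ42 measured by sandwich ELISA (C-terminal capture, 4G8-HRP detection, TMB, 450 nm). IC50 by variable-slope sigmoidal regression on percent of DMSO control.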
(In general: An ELISA detects its analyte on a solid surface through an enzyme-linked reagent.)
As a reminder, the IC50 is the concentration needed to halve the response being measured. Consider `Cc1cn(-c2ncc(Nc3ncc4c(n3)N(C)C(C(F)(F)F)CO4)cc2Cl)cn1` (single isomer, unassigned; (-)) [Example 229A], for which the IC50 came to 215 nM. `COc1cc(Nc2ncc3c(n2)N(C)C(C(F)(F)F)CO3)cnc1-n1cnc(C)c1` (single isomer, unassigned; (-)) [Example 193B]: the IC50 was determined as 35 nM. Under `COc1cc(Nc2ncc3c(n2)N(C)C(C)CO3)ccc1-n1cnc(Cl)c1` (single isomer, unassigned; (+)) [Example 202B] stands 63 nM; under `Cc1cn(-c2ccc(Nc3ncc4c(n3)N(C)C(C)CO4)cc2OC(F)(F)F)cn1` (single isomer, unassigned; (+)) [Example 213B], > 3000 nM; under `COc1cc(Nc2ncc3c(n2)N(C)C(c2ccccc2C(F)(F)F)CO3)ccc1-n1cnc(C)c1` (single isomer, unassigned; (+)) [Example 55B], 66 nM. In the case of `COc1cc(Nc2ncc3c(n2)N(C)[C@H](COc2ccccc2)CO3)ccc1-n1cnc(C)c1` [Example 201], the IC50 stood at 143 nM. Under `Cc1cc(-c2ccc(Nc3ncc4c(n3)N(C)C(c3cc(F)c(F)c(F)c3)CO4)cc2F)ccn1` (single isomer, unassigned; (+)) [Example 36A] stands 107 nM. Under `Cc1cn(-c2ccc(Nc3ncc4c(n3)N(C)C(c3cc(F)c(F)cc3C(F)(F)F)CO4)cc2F)cn1` (single isomer, unassigned) [Example 198B] stands 101 nM. Under `Cc1cn(-c2ccc(Nc3ncc4c(n3)N(C)C(c3ccc(F)cc3)CO4)cc2F)cn1` (single isomer, unassigned; (-)) [Example 58B] stands 1950 nM. Turning to `COc1cc(Nc2ncc3c(n2)N(C)C(c2cc(F)cc(F)c2)CO3)cnc1-n1cnc(C(F)(F)F)c1` (single isomer, unassigned; (-)) [Example 206B], the IC50 stood at 704 nM. In the case of `Cc1cc(-c2ccc(Nc3ncc4c(n3)N(C)C(c3ccccc3C)CO4)cc2F)ccn1` (single isomer, unassigned; (-)) [Example 32A] it was 888 nM; in that of `COc1cc(Nc2ncc3c(n2)N(C)[C@@H](C2CC2)CO3)cnc1-n1cnc(C)c1` [Example 225], 33 nM.

Regarding `Cc1cn(-c2ccc(Nc3ncc4c(n3)N(C)C(c3cc(F)c(F)c(F)c3)CO4)cc2F)cn1` (racemic) [Example 38], the IC50 was 32 nM. In the case of `COc1cc(Nc2ncc3c(n2)N(C)C(c2cc(F)c(F)c(F)c2)CO3)ccc1-c1ccnc(C)c1` (single isomer, unassigned; (-)) [Example 39B] it was 984 nM; in that of `Cc1cc(-c2ccc(Nc3ncc4c(n3)N(C)C(c3cc(F)c(F)c(F)c3)CO4)cc2F)ccn1` (racemic) [Example 36], 162 nM.

On to `COc1cc(Nc2ncc3c(n2)N(C)C(c2ccc(F)cc2F)CO3)ccc1-c1ccnc(C)c1` (single isomer, unassigned; (+)) [Example 63B], for which the half-maximal inhibitory concentration (IC50) worked out at 64 nM.

Turning to `COc1cc(Nc2ncc3c(n2)N(C)C(c2cc(F)c(F)cc2F)CO3)ccc1-n1cnc(C)c1` (single isomer, unassigned; (-)) [Example 97A], the IC50 is 244 nM.

As to `COc1cc(Nc2ncc3c(n2)N(C)C(C)CO3)ccc1-c1ccnc(C)c1` (single isomer, unassigned; (-)) [Example 110A], the IC50 was 199 nM. Under `COc1cc(Nc2ncc3c(n2)N(C)C(c2cc(C(F)(F)F)ccc2Cl)CO3)ccc1-n1cnc(C)c1` (single isomer, unassigned; (-)) [Example 88B] stands 286 nM; under `COc1cc(Nc2ncc3c(n2)N(C)C(c2cc(F)c(F)c(F)c2)CO3)cnc1-n1cnc(C)c1` (single isomer, unassigned; (+)) [Example 182A], 13 nM; under `Cc1cc(-c2ccc(Nc3ncc4c(n3)N(C)C(c3ccc(F)cc3Cl)CO4)cc2F)ccn1` (single isomer, unassigned; (+)) [Example 102A], 415 nM. In the case of `Cc1cn(-c2ccc(Nc3ncc4c(n3)N(C)C(C)CO4)cc2F)cn1` (single isomer, unassigned; (-)) [Example 108A] it was 567 nM; in that of `Cc1cn(-c2ccc(Nc3ncc4c(n3)N(C)C3(CC3)CO4)cc2F)cn1` [Example 258], 324 nM. In the case of `COc1cc(Nc2ncc3c(n2)N(C)C2(CO3)CC(F)(F)C2)cnc1-n1cnc(C)c1` [Example 278] it was 92 nM; in that of `COc1cc(Nc2ncc3c(n2)N(C)C(c2ccccc2OC(F)(F)F)CO3)ccc1-c1ccnc(C)c1` (single isomer, unassigned; (-)) [Example 62A], 339 nM; in that of `Cc1cn(-c2ccc(Nc3ncc4c(n3)N(C)C(c3ccccc3)CO4)cc2)cn1` (racemic) [Example 26], 121 nM.

Turning to `COc1cc(Nc2ncc3c(n2)N(C)C(Cc2ccccc2)CO3)ccc1-n1cnc(C)c1` (racemic) [Example 47], the IC50 amounted to 41 nM. In the case of `Cc1cn(-c2ccc(Nc3ncc4c(n3)N(C)C(c3ccccc3)CO4)cc2F)cn1` (racemic) [Example 25] it was 101 nM; in that of `Cc1cc(-c2ccc(Nc3ncc4c(n3)N(C)C(c3cc(F)c(F)c(F)c3)CO4)cc2)ccn1` (single isomer, unassigned; (+)) [Example 37A], 59 nM.

In the case of `COc1cc(Nc2ncc3c(n2)N(C)C(c2ccc(F)cc2)CO3)ccc1-c1ccnc(C)c1` (single isomer, unassigned; (-)) [Example 61A], the half-inhibitory concentration (IC50) turned out to be 1010 nM. Regarding `COc1cc(Nc2ncc3c(n2)N(C)C2(CO3)CC(F)(F)C2)ccc1-n1cnc(C)c1` [Example 276], the IC50 is 56 nM. As for `COc1cc(Nc2ncc3c(n2)N(C)C(Cc2ccccc2)CO3)ccc1-n1cnc(C)c1` (single isomer, unassigned; (-)) [Example 47B], the IC50 was determined as 65 nM. In the case of `Cc1cn(-c2ccc(Nc3ncc4c(n3)N(C)C(C)(C)CO4)cc2F)cn1` [Example 255] it was 488 nM; in that of `COc1cc(Nc2ncc3c(n2)N2CC(F)(F)C[C@H]2CO3)cnc1-n1cnc(C)c1` [Example 298, (S)-8,8-difluoro-N-(5-methoxy-6-(4-methyl-1H-imidazol-1-yl)pyridin-3-yl)-6a, 7,8,9-tetrahydro-6H-pyrimido [5,4-b] pyrrolo [1,2-d] [1, 4] oxazin-2-amine], 177 nM. Under `Cc1cn(-c2ccc(Nc3ncc4c(n3)N(C)C(c3ccc(F)cc3C(F)(F)F)CO4)cc2F)cn1` (single isomer, unassigned; (-)) [Example 99B] stands 1040 nM; under `COc1cc(Nc2ncc3c(n2)N(C)C(c2cc(F)cc(F)c2)CO3)ccc1-c1ccnc(C)c1` (single isomer, unassigned; (+)) [Example 42A], 36 nM; under `COc1cc(Nc2ncc3c(n2)N(C)C(c2cc(F)c(F)cc2F)CO3)cnc1-n1cnc(C)c1` (single isomer, unassigned; (-)) [Example 181A], 9 nM. `COc1cc(Nc2ncc3c(n2)N(C)C(c2cc(F)c(F)cc2F)CO3)cnc1-n1cnc(C)c1` (single isomer, unassigned; (+)) [Example 181B]: the IC50 worked out at 392 nM. Under `Cc1cn(-c2ccc(Nc3ncc4c(n3)N(C)C(c3cc(F)cc(F)c3)CO4)cc2OC(F)(F)F)cn1` (single isomer, unassigned; (+)) [Example 223B] stands > 3000 nM.

For the compound `COc1cc(Nc2ncc3c(n2)N(C)C(C(F)(F)F)CO3)ccc1C#N` (single isomer, unassigned; (+)) [Example 230A, (+)-2-methoxy-4-((8-methyl-7-(trifluoromethyl)-7,8-dihydro-6H-pyrimido [5,4-b] [1, 4]oxazin-2-yl)amino) benzonitrile], the IC50 was > 3000 nM.

On to `Cc1cn(-c2ccc(Nc3ncc4c(n3)N(C)C(C)CO4)cc2C#N)cn1` (single isomer, unassigned; (-)) [Example 205B, (−)-5-((7,8-dimethyl-7,8-dihydro-6H-pyrimido [5,4-b] [1, 4]oxazin-2-yl)amino)-2-(4-methyl-1H-imidazol-1-yl) benzonitrile], for which the IC50 amounted to 259 nM. In the case of `COc1cc(Nc2ncc3c(n2)N(C)C(c2ccc(F)cc2Cl)CO3)ccc1-n1cnc(C)c1` (single isomer, unassigned; (+)) [Example 93B] it was 32 nM.
